Test results taken from US10576066B2, “Histone deacetylase as a modulator of PDLI expression and activity” (H. LEE MOFFITT CANCER CENTER AND RESEARCH INSTITUTE, INC., priority 2014, dated 2020).

Legend:
Multiple Myeloma = conditions: preliminary studies (Santo et al. 2012); cited from earlier work
PDL1 [1] = assay: PDL1 expression in B16 tumors of LBH589-treated mice (flow cytometry); type: in vivo, C57BL/6 mice; conditions: 15 mg/kg IP Mon, Wed, Fri, one week, FIG. 24
Description: C57BL/6 mice were injected subcutaneously with 100,000 B16 cells. When tumors became palpable, treatment with 15 mg/kg LBH589 via IP injection began on a Mon, Wed, Fri schedule. After one week of treatment, mice were sacrificed, tumors harvest and analyzed by flow cytometry for PDL1 expression.

PDL1 [2] = assay: PDL1 expression by flow cytometry in melanoma cell lines treated with HDACi; type: cell-based; conditions: two murine and five human melanoma cell lines, up to 72 hours, relative to DMSO; FIG. 22
Description: B16, WM983A, Sk-Mel21, WM1366, WM35, and WM793 melanoma cells lines were treated with DMSO (“D”), 10 nM LBH589 (“LB”), 500 nM MGCD0103 (“MG”), or 500 nM MS275 (“MS”) for 72 hours. PDL1 expression was assessed by flow cytometry. Histograms shown are for PDL1 expression or autofluorescence (solid grey) of 10,000 cells or more.
Melanoma cell lines were treated with DMSO, 10 nM LBH589 (squares), 1.5 μM ACY1215 (triangles), 500 nM MS275 (diamonds), 500 nM CLB66 (circles), or 500 nM MGCD0103 (X). PDL1 expression at indicated time points was assessed by flow cytometry. Voltages between time point measurements was standardized using rainbow beads with standard emissions. Mean fluorescence intensity minus autofluorescencee is graphed for each time point. DMSO treatment was plotted as zero hours.
In this Example, HDACi targeting class I HDACs, but not class II, is shown to augment expression of PDL1 in melanoma cells. Two murine and five human melanoma cell lines were treated for up to 72 hours with DMSO, LBH589 (pan-HDACi), MS275 (class I inhibitor), MGCD0103 (class I inhibitor), an HDAC6 specific inhibitor, or a class IIa inhibitor (FIG. 21). […] Increased expression was noted as early as 24 hours after treatment and peaked at 72 to 96 hours post-treatment (FIG. 23).

B16 melanoma cells = assay: In vivo growth of B16 melanoma in C57BL/6 mice treated with HDAC6 inhibitors; conditions: wild type B16 melanoma cells in C57BL/6 mice, treated daily with 20 mg/kg; FIG. 7B
Description: Pan-HDAC inhibitors (pan-HDACi) slows the proliferation and improves the immunogenicity of melanoma cells (Woods, D. M., et al. Melanoma Res (2013)). However, the non-selective nature of pan-HDACi makes the assumption of the specific participation of HDACs on these processes impossible. […] The next step was identifying if HDAC6KD would affect the growth of melanoma cells in vivo. […] A similar result was obtained in another experiment injecting wild type B16 melanoma cells into C57BL/6 mice treated daily with 20 mg/kg of the HDAC6inh Nexturastat A or Nexturastat B (FIG. 7B). The amount of PDL1 and activation of STAT3 was decreased in tumors isolated after the in vivo treatment with HDAC6inh (FIG. 7C).
These in vitro results were further supported by in vivo tumor growth studies. […] A similar outcome was identified after inoculation of HDAC6KD B16 melanoma cells in C57BL/6 mice (FIG. 14A). […] This delay in tumor growth could be a reflection of their diminished proliferation and an increase in their immunogenicity leading to improved immune recognition and clearance. These studies provide critical insights into the molecular pathways that are involved in the regulatory role of HDAC6 in cell proliferation, survival, and cytokine signaling of human melanoma cells.

B16 WT melanoma = assay: In vivo growth of B16 WT melanoma in SCID mice treated with HDAC6 inhibitor; conditions: FIG. 14A
Description: FIGS. 14A and 14B show differences in growth of melanoma cells after HDAC6 inhibition in altered immune systems. […] Mice were treated with antibodies to deplete CD4, CD8, and NK cells.

HDAC6 = assay: Recruitment of HDAC6 to the IL-10 promoter; type: cell-based; conditions: cells treated with STAT3 inhibitor
Description: HDAC6 is recruited to regulatory sequences in gene promoters such as MYC (Toropainen, S., et al. J Mol Biol. 400:284-294 (2010)), glucocorticoid receptor (Govindan, M. V. J Biol Chem. 285:4489-4510 (2010)) and estrogen receptor a-inducible genes (Palijan, A., et al. J Biol Chem. 284:30264-30274 (2009)). However, there is no evidence showing that HDAC6 is directly affecting the acetylation status of chromatin. […] Thus, the transcriptional regulatory effects observed for HDAC6 could be mediated by other regulatory factors recruited along with this deacetylase to specific DNA sequences. […] HDAC6 and STAT3 are recruited to the same region of the IL-10 promoter, and the recruitment of HDAC6 is impaired when cells are treated with the STAT3 inhibitor CPA-7.

In the case of `O=C(CCCCCCNC(=O)c1cnc(N(c2ccccc2)c2ccccc2)nc1)NO` [ACY1215], the anti-tumor activity (Multiple Myeloma) is listed as “important anti-tumor activity”.
For `Cc1[nH]c2ccccc2c1CCNCc1ccc(/C=C/C(=O)NO)cc1` [LBH589], the “PDL1 expression in vivo” value (PDL1 [1]) was “upregulates” and the PDL1 expression (PDL1 [2]) was “dose dependent, increases”.
In the case of `Nc1ccccc1NC(=O)c1ccc(CNc2nccc(-c3cccnc3)n2)cc1` [MGCD0103], the PDL1 expression (PDL1 [2]) is reported as “dose dependent, increases”.
With `Nc1ccccc1NC(=O)c1ccc(CNC(=O)OCc2cccnc2)cc1` [MS275] the PDL1 expression (PDL1 [2]) was “dose dependent, increases”.
In the case of `CCCCN(Cc1ccc(C(=O)NO)cc1)C(=O)Nc1ccccc1` [Nexturastat A], the tumor growth (B16 melanoma cells) is reported as “delayed tumor growth”.
In the case of `CCCCN(Cc1ccc(C(=O)NO)cc1)C(=O)Nc1ccc2cn[nH]c2c1` [Nexturastat B], the tumor growth (B16 melanoma cells) is reported as “delayed tumor growth” and the “in vivo growth of B16 WT melanoma” value (B16 WT melanoma) is reported as “not significantly different”.
With CPA-7 the “recruitment of HDAC6 to the IL-10 promoter” value (HDAC6) was “impaired”.
